Results as given in patent publication US5359135A, “Triasulfurone compounds” (priority 1990, dated 1994).

Key:
Assay type in all cases: binding, mouse (Balb/c)
Conditions in all cases: for Cross-reactivity: (triasulfurone conc. for 50% inhibition/analog conc. for 50% inhibition) × 100
MAb 4147-19-4 = experiment: competitive ELISA, triasulfurone and analogs with MAb 4147-19-4 (Table 1)
Source text: (§1) As defined within the context of this invention, the percentage of cross-reactivity is represented by the following equation: [triasulfurone concentration for 50% inhibition (I50)/concentration of the triasulfurone analogs for 50% inhibition (I50)]×100.
(§2) The I50 value can be determined, for example, by means of a competitive ELISA assay (see Example 8). In that case the I50 value corresponds, for example, to the antigen concentration that leads to a 50% inhibition of the binding of the antibody to the carrier-bound antigen.
(§3) The detection of triasulfurone is effected by means of a two-step competitive ELISA test.
(§4) BSA-conjugated hapten, prepared in accordance with Example 1.3.1 or 1.3.2, in a 50mM sodium carbonate buffer (pH 9.6) (200 ng of BSA-conjugated hapten/100 μl of sodium carbonate buffer) is first of all adsorbed on microtitre plates (for example Dynatech, type M 129A) and incubated overnight at a temperature of 4° C. The plates are then washed five times with PBS buffer enriched with 0.1% (v/v) polysorbate 20 (Tween 20) (PBS Tween).
(§5) The remaining free binding sites of the solid carder material are then blocked by the addition of PBS-BSA in the form of a 1% (w/v) solution. After incubation for two hours at 22° C. the plates are washed again with PBS Tween (0.1%).
(§6) 50 μl of the supernatant of the previously cloned hybridoma cells (in a dilution of 1:2000 or 1:4000) or 50 μl of the previously purified monoclonal antibodies (40-120 ng/ml) are incubated a) with 950 μl of a standard solution containing an increasing amount of triasulfurone or of triasulfurone analogs, b) with triasulfurone-containing water samples or c) with triasulfurone-containing soil extracts. [All dilutions are carried out in PBS Tween (0.1%)].
(§7) After an incubation period of 1 hour at room temperature (22° C.), 200 μl of the antigen/antibody mixture are added to each well in the microtitre plate and the whole batch is incubated for a further one hour. The wells are then washed five times with PBS Tween (0.1%) and charged with 100 μl/well of goat anti-mouse IgG antibody that is conjugated to alkaline phosphatase (dilution 1:1500), and incubated for a period of 1.5 hours.
(§8) After washing again, 150 μl/well of the substrate p-nitrophenyl phosphate dissolved in 1 mg/ml of diethanolamine buffer ([…], pH 9.8, enriched with 0.5 mM MgCl2 ×6H2 O) are added to the wells.
(§9) The intensity of the colour reaction that has occurred is determined at a wavelength of 405 nm. […] All the samples are determined in triplicate.
(§10) In order to determine the amount of triasulfurone present in a sample, first of all a calibration curve is produced (FIG. 1), B/Bo×100 being plotted against the concentration of inhibitor. (Bo represents the absorption capacity measured without the addition of a triasulfurone inhibitor to the antibody, and B is the absorption capacity when triasulfurone inhibitors at various concentrations are added). The I50 value indicates the concentration of the antigen at which the binding of antibody to the solid phase is inhibited by 50%. The I50 value is determined using an ENZFITTER (Leatherbarrow, Elsevier-Biosoft) curve-calculation program based on a four-parameter logistical curve (Raab GM, 1983) and specially adapted to the prevailing conditions. The quantitative determination of triasulfurone in soil or water samples within the context of ELISA is also carried out using the ENZFITTER program, the adaptation of the curve being based on standards that run on any microtitre plate.

MAb 4134-40-1 = experiment: competitive ELISA, triasulfurone and analogs with MAb 4134-40-1 (Table 1)
Source text: as §1, §2, §3, §4, §5, §6, §7, §8, §9, §10

MAb 4149-1-1 = experiment: competitive ELISA, triasulfurone and analogs with MAb 4149-1-1 (Table 1)
Source text: as §1, §2, §3, §4, §5, §6, §7, §8, §9, §10

| SMILES | I50 (inhibitor concentration that reduces the ELISA signal by 50% in comparison to the control) (MAb 4147-19-4) [ng/mL] | Cross-reactivity (MAb 4147-19-4) [%] | I50 (inhibitor concentration that reduces the ELISA signal by 50% in comparison to the control) (MAb 4134-40-1) [ng/mL] | Cross-reactivity (MAb 4134-40-1) [%] | I50 (inhibitor concentration that reduces the ELISA signal by 50% in comparison to the control) (MAb 4149-1-1) [ng/mL] | Cross-reactivity (MAb 4149-1-1) [%] |
| --- | --- | --- | --- | --- | --- | --- |
| COc1nc(C)nc(NC(=O)NS(=O)(=O)c2ccccc2SCCF)n1 [H] | 0.13 | 69.2 | 30 | 24.0 | 16.2 | 0.3 |
| COc1nc(C)nc(NC(=O)NS(=O)(=O)c2ccccc2OCCCl)n1 [triasulfurone, 3-(6-methoxy-4-methyl-1,3,5-triazin-2-yl)-1-[2-(2-chloroethoxy)-phenylsulfonyl]-urea] | 0.09 | 100.0 | 7.2 | 100.0 | 0.05 | 100.0 |
